Experiments:
stripe rust = test: Glyphosate amount and timing on glyphosate resistant Macon wheat: stripe rust and yield; format: in vivo, Puccinia striiformis
Source text: This example describes the effect of glyphosate treatment of glyphosate resistant wheat in varying amounts and at different times. Eight different treatment regimens were applied to the hard white spring wheat variety Macon, which is susceptible to stripe rust. Macon plots were planted at the Palouse Conservation Farm near Pullman, Washington and subjected to one of the following eight treatment regimens:
Treatment 1: no herbicide treatment and manual weed control;
Treatment 2: a 16 oz./A (0.50 kg/ha of active ingredient) application of glyphosate, one-half the recommended rate of 32 oz./A (1.0 kg/ha of active ingredient), was made ‘on-label’ to glyphosate resistant wheat at the 4-5 leaf stage.
Treatment 3: a first application of glyphosate at one-half (0.50 kg/ha of active ingredient) the recommended density of 1.0 kg/ha was made to glyphosate resistant wheat at the 4-5 leaf stage according to the manufacturer's instructions. A second application of 16 oz./A (0.50 kg/ha of active ingredient) glyphosate was made once moderate stripe rust symptoms appeared (42 days following the first glyphosate application).
Treatment 4: a 16 oz./A (0.50 kg/ha of active ingredient) application of glyphosate, one-half the recommended rate, was made to glyphosate resistant wheat once moderate stripe rust symptoms appeared.
Treatment 5: a 32 oz./A (1.0 kg/ha of active ingredient) application of glyphosate, the recommended full rate, was made ‘on-label’ to glyphosate resistant wheat at the 4-5 leaf stage.
Treatment 6: a first application of 32 oz./A. (1.0 kg/ha of active ingredient) glyphosate, the recommended full rate, was made ‘on-label’ to glyphosate resistant wheat at the 4-5 leaf stage and a second application of 32 oz./A. (1.0 kg/ha) glyphosate was made once moderate stripe rust symptoms appeared.
Treatment 7: a 32 oz./A. (1.0 kg/ha of active ingredient) application of glyphosate was made to glyphosate resistant wheat once moderate stripe rust symptoms appeared. Treatment 8: a 48 oz./A. ([…] of active ingredient) application of glyphosate, 1.5 times the recommended rate, was made to glyphosate resistant plants at the 4-5 leaf stage.
With reference to Table 7, stripe rust severity is characterized with two numerical indications. The first is a number characterizing the stripe rust severity on a scale of 0-9, with 0 corresponding to no infection and 9 being a high level of spore activity and infection. The second number is a percentage of the plants in the plot infected with the rating described by the first number.

[1] = test system: Rhizoctonia solani isolate AG-8; test: Field yield of Rhizoctonia inoculated spring wheat after herbicide treatment; format: in vivo; conditions: for Yield: glyphosate on glyphosate res. wheat, Buctril/Harmony on sensitive wheat
Source text: This example describes the response of glyphosate resistant and glyphosate sensitive spring wheat to inoculation with soil pathogens as judged by wheat yield. Inoculation simulates the green-bridge effect of dying weeds and volunteer in a standing wheat crop. The soil pathogens assessed were: Rhizoctonia solani isolate AG-8 and Gaeumannomyces graminis var. tritici. These pathogenic strains are prevalent in the Pacific Northwest and were isolated from the region. They have been maintained by the Department of Plant Pathology and USDA researchers at Washington State University.
Near isogenic lines (glyphosate resistant and glyphosate sensitive) of Westbred 926 and Bobwhite were seeded using a no-till drill at three different sites (Lind, Davenport and Pullman, Wash.).
To introduce the root pathogens into the wheat seed for distribution into the field, oat seeds, autoclaved and sterilized, were inoculated for each soilborne pathogen using isolated pathogen cultures. Oat seeds that were non-inoculated, but sterilized and autoclaved, served as a control. Following two weeks of pathogen growth, the inoculated oat seeds were dried down for 2 days and screened for potential contamination. To establish a green-bridge, a mixture of 15% barley and 20% oat inoculum seeds (by weight) were planted using a small plot no-till drill. One week after planting the introduced green-bridge, the wheat isolines were planted in rows adjacent to the barley green-bridge rows in a randomized, split-plot design, replicated in five randomized blocks. Inoculum treatment served as the main plot, and response to herbicides as the subplot factor.
This example describes the effect of herbicide treatment on spring wheat, averaged over all disease treatments, planted as described in Example 1. The appropriate herbicide was applied to each trial once the plants reached the 4-5 leaf stage with a custom built hand-pulled sprayer outfitted with a boom with a length of 16 feet with spray shields on the side to minimize drift. In this manner, an entire plot was treated at once with the appropriate herbicide rate. Entries that were resistant to glyphosate were treated with ROUNDUP® brand herbicide (0.63 kg/ha), available from Monsanto, St. Louis, Mo. Herbicide sensitive and resistant entries were treated with a common broadleaf herbicide treatment (Buctril/Harmony) or a no-spray control. Introduced green-bridge barley and any other weeds were manually removed 7-10 days after spray treatment to simulate the time required for ROUNDUP to take effect and maintained weed-free conditions to provide an accurate comparison to commercial weed management strategies needed to assess potential herbicide/disease interactions. […]

[2] = 16 oz (52 days) and 16 oz (94 days)
[3] = 32 oz (52 days) and 32 oz (94 days)
[4] = off-label applications made 94 days after planting

Question: Which “Stripe Rust (96 days after planting), percentage of the plants in the plot infected with the rating” value (stripe rust; 16 oz (52 days)) does the source give for `O=C(O)CNCP(=O)(O)O` [glyphosate, N-phosphonomethylglycine] here?
Answer: The value was 10%.

Question: And the “Stripe Rust (102 days after planting), percentage of the plants in the plot infected with the rating” value (stripe rust; 16 oz (52 days))?
Answer: The value was 30%.

Question: What about the “Stripe Rust (102 days after planting), severity on a scale of 0-9” value (stripe rust; 16 oz (52 days)) of the same molecule?
Answer: The value was 7-8.

Question: What about the “Stripe Rust (106 days after planting), percentage of the plants in the plot infected with the rating” value (stripe rust; 16 oz (52 days)) of the same molecule?
Answer: The value was 30%.

Question: And the “Stripe Rust (106 days after planting), severity on a scale of 0-9” value (stripe rust; 16 oz (52 days))?
Answer: Its value is 8.

Question: What about the Yield (stripe rust; 16 oz (52 days)) of the same molecule?
Answer: The Yield was 60.2 bu/A.

Question: What about the “Stripe Rust (96 days after planting), percentage of the plants in the plot infected with the rating” value (stripe rust; [2]) of the same molecule?
Answer: The value was 10%.

Question: What about the “Stripe Rust (96 days after planting), severity on a scale of 0-9” value (stripe rust; [2]) of the same molecule?
Answer: Its value is 4-5.

Question: What about the “Stripe Rust (102 days after planting), percentage of the plants in the plot infected with the rating” value (stripe rust; [2]) of the same molecule?
Answer: Its value is 10%.

Question: What about the “Stripe Rust (102 days after planting), severity on a scale of 0-9” value (stripe rust; [2]) of the same molecule?
Answer: Its value is 0-1.

Question: What about the “Stripe Rust (106 days after planting), percentage of the plants in the plot infected with the rating” value (stripe rust; [2]) of the same molecule?
Answer: Its value is 10%.

Question: What about the “Stripe Rust (106 days after planting), severity on a scale of 0-9” value (stripe rust; [2]) of the same molecule?
Answer: Its value is 2.

Question: And the Yield (stripe rust; [2])?
Answer: Its Yield is 68.7 bu/A.

Question: And the “Stripe Rust (96 days after planting), severity on a scale of 0-9” value (stripe rust; 16 oz (52 days), 0 = no infection, 9 = high level of spore activity and infection)?
Answer: Its value is 7-8.

Question: And the “Stripe Rust (96 days after planting), percentage of the plants in the plot infected with the rating” value (stripe rust; 16 oz (94 days))?
Answer: Its value is 20%.

Question: And the “Stripe Rust (102 days after planting), percentage of the plants in the plot infected with the rating” value (stripe rust; 16 oz (94 days))?
Answer: The value was 20%.

Question: What about the “Stripe Rust (102 days after planting), severity on a scale of 0-9” value (stripe rust; 16 oz (94 days)) of the same molecule?
Answer: Its value is 2-3.

Question: What about the “Stripe Rust (106 days after planting), percentage of the plants in the plot infected with the rating” value (stripe rust; 16 oz (94 days)) of the same molecule?
Answer: The value was 15%.

Question: What about the “Stripe Rust (106 days after planting), severity on a scale of 0-9” value (stripe rust; 16 oz (94 days)) of the same molecule?
Answer: The value was 2-3.

Question: And the Yield (stripe rust; 16 oz (94 days))?
Answer: Its Yield is 52.7 bu/A.

Question: And the “Stripe Rust (96 days after planting), severity on a scale of 0-9” value (stripe rust; 16 oz (94 days), once moderate stripe rust symptoms appeared)?
Answer: The value was 7-8.

Question: What about the “Stripe Rust (96 days after planting), percentage of the plants in the plot infected with the rating” value (stripe rust; 32 oz (52 days)) of the same molecule?
Answer: The value was 20%.

Question: And the “Stripe Rust (96 days after planting), severity on a scale of 0-9” value (stripe rust; 32 oz (52 days))?
Answer: Its value is 7-8.

Question: What about the “Stripe Rust (102 days after planting), percentage of the plants in the plot infected with the rating” value (stripe rust; 32 oz (52 days)) of the same molecule?
Answer: The value was 40%.

Question: And the “Stripe Rust (102 days after planting), severity on a scale of 0-9” value (stripe rust; 32 oz (52 days))?
Answer: The value was 7-8.

Question: What about the “Stripe Rust (106 days after planting), percentage of the plants in the plot infected with the rating” value (stripe rust; 32 oz (52 days)) of the same molecule?
Answer: Its value is 60%.

Question: And the “Stripe Rust (106 days after planting), severity on a scale of 0-9” value (stripe rust; 32 oz (52 days))?
Answer: Its value is 8.

Question: What about the Yield (stripe rust; 32 oz (52 days)) of the same molecule?
Answer: The Yield was 80.3 bu/A.

Question: What about the “Stripe Rust (96 days after planting), percentage of the plants in the plot infected with the rating” value (stripe rust; [3]) of the same molecule?
Answer: The value was 5%.

Question: And the “Stripe Rust (96 days after planting), severity on a scale of 0-9” value (stripe rust; [3])?
Answer: Its value is 9.

Question: And the “Stripe Rust (102 days after planting), percentage of the plants in the plot infected with the rating” value (stripe rust; [3])?
Answer: The value was 5%.

Question: What about the “Stripe Rust (102 days after planting), severity on a scale of 0-9” value (stripe rust; [3]) of the same molecule?
Answer: Its value is 1-2.

Question: What about the “Stripe Rust (106 days after planting), percentage of the plants in the plot infected with the rating” value (stripe rust; [3]) of the same molecule?
Answer: Its value is 10%.

Question: And the “Stripe Rust (106 days after planting), severity on a scale of 0-9” value (stripe rust; [3])?
Answer: The value was 3.

Question: And the Yield (stripe rust; [3])?
Answer: The Yield was 74.5 bu/A.

Question: And the “Stripe Rust (96 days after planting), percentage of the plants in the plot infected with the rating” value (stripe rust; 32 oz (94 days))?
Answer: The value was 25%.

Question: What about the “Stripe Rust (102 days after planting), percentage of the plants in the plot infected with the rating” value (stripe rust; 32 oz (94 days)) of the same molecule?
Answer: Its value is 20%.

Question: And the “Stripe Rust (102 days after planting), severity on a scale of 0-9” value (stripe rust; 32 oz (94 days))?
Answer: Its value is 0-1.

Question: What about the “Stripe Rust (106 days after planting), percentage of the plants in the plot infected with the rating” value (stripe rust; 32 oz (94 days)) of the same molecule?
Answer: Its value is 5%.

Question: And the “Stripe Rust (106 days after planting), severity on a scale of 0-9” value (stripe rust; 32 oz (94 days))?
Answer: The value was 2.

Question: And the Yield (stripe rust; 32 oz (94 days))?
Answer: The Yield was 64.5 bu/A.

Question: What about the “Stripe Rust (96 days after planting), severity on a scale of 0-9” value (stripe rust; 32 oz (94 days), once moderate stripe rust symptoms appeared) of the same molecule?
Answer: Its value is 7-8.

Question: And the “Stripe Rust (96 days after planting), percentage of the plants in the plot infected with the rating” value (stripe rust; 48 oz (52 days))?
Answer: The value was 2%.

Question: And the “Stripe Rust (96 days after planting), severity on a scale of 0-9” value (stripe rust; 48 oz (52 days))?
Answer: The value was 7-8.

Question: And the “Stripe Rust (102 days after planting), percentage of the plants in the plot infected with the rating” value (stripe rust; 48 oz (52 days))?
Answer: Its value is 10%.

Question: And the “Stripe Rust (102 days after planting), severity on a scale of 0-9” value (stripe rust; 48 oz (52 days))?
Answer: Its value is 4-5.

Question: And the “Stripe Rust (106 days after planting), percentage of the plants in the plot infected with the rating” value (stripe rust; 48 oz (52 days))?
Answer: Its value is 20%.

Question: What about the “Stripe Rust (106 days after planting), severity on a scale of 0-9” value (stripe rust; 48 oz (52 days)) of the same molecule?
Answer: Its value is 8.

Question: And the Yield (stripe rust; 48 oz (52 days))?
Answer: The Yield was 67.8 bu/A.

Question: What about the “control of stripe rust compared to the 16 oz./A and 32 oz./A application” value (stripe rust; 48 oz./A rate applied at the 4-5 leaf stage) of the same molecule?
Answer: The value was “did the best job of controlling stripe rust”.

Question: And the “effect on plants moderately infected with stripe rust” value (stripe rust; [4])?
Answer: The value was “a curative effect was observed”.

Question: What about the “formation of necrotic stripes on the leaves, time following glyphosate application” value (stripe rust; [4]) of the same molecule?
Answer: The value was “second day”.

Question: What about the “control of stripe rust in the trial” value (stripe rust; treatments 3 and 6, split-treatments (52 and 94 days after planting)) of the same molecule?
Answer: Its value is “best control of stripe rust”.

Question: What about the Yield ([1]; Davenport) of the same molecule?
Answer: The Yield was 29.0 bu/acre.

Question: What about the Yield ([1]; Lind) of the same molecule?
Answer: The Yield was 14.0 bu/acre.

Question: And the Yield ([1]; Pullman)?
Answer: The Yield was 53.9 bu/acre.

Question: What about the “yield relative to untreated and Buctril/Harmony treated glyphosate sensitive wheat” value ([1]; glyphosate resistant wheat) of the same molecule?
Answer: Its value is “enhanced yield at each location”.

— US20130130903A1, “Suppression of Foliar and Soilborne Pathogens” (priority 2003, published 2013)
